# Laboratory results: patent US6403587B1, “Heteroaryl-hexanoic acid amide derivatives, their preparation and their use as selective inhibitors of MIP-1-α binding to its CCR 1 receptor” (Pfizer Inc., priority 1997, dated 2002)
row,Structure (SMILES),melting point
1,"CC(C)(O)CC[C@H](C[C@H](O)[C@H](Cc1ccccc1)NC(=O)c1cnccc1C(F)(F)F)C(N)=O [Example 323, N-(1(S)-Benzyl-4(R)-carbamoyl-2(S),7-dihydroxy-7-methyl-octyl)-4-trifluoromethyl-nicotinamide]",131 to 135 °C
2,"CC(C)(O)CC[C@H](C[C@H](O)[C@H](Cc1cccc2ccccc12)NC(=O)c1cnc2ccccc2n1)C(N)=O [Example 331, Quinoxaline-2-carboxylic acid (4(R)-carbamoyl-2(S),7-dihydroxy-7-methyl-1(S)-naphthalen-1-ylmethyl-octyl)-amide]",155 to 158 °C
3,"CC(C)(O)CC[C@H](C[C@H](O)[C@H](Cc1cccc(F)c1)NC(=O)c1cnc2c(F)c(F)c(F)cc2c1)C(N)=O [Example 332, 6,7,8-Trifluoro-quinoline-3-carboxylic acid [4(R)-carbamoyl-1(S)-(3-fluoro-benzyl)-2(S),7-dihydroxy-7-methyl-octyl]-amide]",183 to 185 °C
4,"CC(C)(O)CC[C@H](C[C@H](O)[C@H](Cc1csc2ccccc12)NC(=O)c1cnc2ccccc2n1)C(N)=O [Example 335, Quinoxaline-2-carboxylic acid (1(S)-benzo[b]thiophen-3-ylmethyl-4(R)-carbamoyl-2(S),7-dihydroxy-7-methyl-octyl)-amide]",163 to 164 °C
5,"NC(=O)C(Cc1ccc(O)cc1)CC(O)C(Cc1ccccc1)NC(=O)c1cnc2ccccc2n1 (stereo not shown) [Example 336, Quinoxaline-2-carboxylic acid [1-benzyl-4-carbamoyl-2-hydroxy-5-(4-hydroxy-phenyl)-pentyl]-amide]",190.5 to 191.5 °C

# Further lines, results first:
row,melting point,Structure (SMILES)
1,162 to 163 °C,"CC(C)(O)CC[C@H](C[C@H](O)[C@H](Cc1cc(F)cc(F)c1)NC(=O)c1cnc2ccccc2n1)C(N)=O [Example 315, Quinoxaline-2-carboxylic acid [4(R)-carbamoyl-1(S)-(3,5-difluoro-benzyl)-2(S),7-dihydroxy-7-methyl-octyl]-amide]"
2,98 to 100 °C,"CC(C)(O)CC[C@H](C[C@H](O)[C@H](Cc1cc(F)cc(F)c1)NC(=O)c1cnc2ccccc2n1)C(=O)NO [Example 320, Quinoxaline-2-carboxylic acid [1(S)-(3,5-difluoro-benzyl)-2(S),7-dihydroxy-4(R)-hydroxycarbamoyl-7-methyl-octyl]-amide]"
3,130 to 131 °C,"CC(C)(O)CC[C@H](C[C@H](O)[C@H](Cc1ccccc1F)NC(=O)c1cnc2ccccc2n1)C(=O)NO [Example 326, Quinoxaline-2-carboxylic acid [1(S)-(2-fluoro-benzyl)-2(S),7-dihydroxy4(R)-hydroxycarbamoyl-7-methyl-octyl]-amide]"
4,158 to 159 °C,"CC(C)(O)CC[C@H](C[C@H](O)[C@H](Cc1cccs1)NC(=O)c1cnc2ccccc2n1)C(N)=O [Example 327, Quinoxaline-2-carboxylic acid (4(R)-carbamoyl-2(S),7-dihydroxy-7-methyl-1(S)-thiophen-2-ylmethyl-octyl)-amide]"
5,147 to 148 °C,"CC(C)(O)CC[C@H](C[C@H](O)[C@H](Cc1ccccc1F)NC(=O)c1cnc2ccccc2n1)C(N)=O [Example 328, Quinoxaline-2-carboxylic acid [4(R)-carbamoyl-1(S)-(2-fluoro-benzyl)-2(S),7-dihydroxy-7-methyl-octyl]-amide]"
6,150 to 153 °C,"CC(C)(O)CC[C@H](C[C@H](O)[C@H](Cc1ccc(F)c(F)c1)NC(=O)c1cnc2ccccc2n1)C(=O)NO [Example 329, Quinoxaline-2-carboxylic acid [1(S)-(3,4-difluoro-benzyl)-2(S),7-dihydroxy-4(R)-hydroxycarbamoyl-7-methyl-octyl]-amide]"
7,110 to 120 °C,"CC(C)(O)CC[C@H](C[C@H](O)[C@H](Cc1ccc(F)c(F)c1)NC(=O)c1cnc2ccccc2n1)C(N)=O [Example 330, Quinoxaline-2-carboxylic acid [4(R)-carbamoyl-1(S)-(3,4-difluoro-benzyl)-2(S),7-dihydroxy-7-methyl-octyl]-amide]"
8,104 to 106 °C,"CC(C)(O)CC[C@H](C[C@H](O)[C@H](Cc1ccc2ccccc2c1)NC(=O)c1cnc2ccccc2n1)C(N)=O [Example 333, Quinoxaline-2-carboxylic acid (4(R)-carbamoyl-2(S),7-dihydroxy-7-methyl-1(S)-naphthalen-2-ylmethyl-octyl)-amide]"
